From patent publication US8466161B2, “Hydroxamate derivative, a production method for the same, and a pharmaceutical composition comprising the same” (Chong Kun Dang Pharmaceutical Corp., priority 2009, dated 2013)
Each block holds one compound with its values, some of them ahead of it.

Tests used:
HL60 cell line = assay: Inhibitory effect on growth of HL60 cell line (MTT); type: cell-based; settings: Homo sapiens, HL-60, 72 h, 3 days culture
Protocol: In the culture of HL60 cells, 10% FBS-containing RPMI1640 medium was used Each of test substances was serially diluted in DMSO to a concentration of 10 mg/ml and serially diluted in PBS to a final concentration ranging from 100 μg/ml to 0.03 μg/ml. 20 μl (micro-liter) of each of the serially diluted test substances and 180 μl (micro-liter) of a medium containing 60×10^4 cells/ml were added to a 96-well plate and cultured under conditions of 37° C. and 5% CO2 for 3 days. After completion of the culture, 50 μl (micro-liter) of a solution of 1.25 mg/ml MTT (3-(4,5-dimethylthiazol-2-yl)-2,5-diphenyltetrazolium bromide) in PBS was added to each well of the plate and incubated at 37° C. for 3 hours. The formed formazan crystal was dissolved in 150 μl (micro-liter) of DMSO, and the absorbance at 570 nm was measured.

[1] = tested on: HCT116 (human colorectal carcinoma); assay: In vivo anticancer activity, HCT116 tumor transplantation model; set-up: species or system BALB/c nude mice (human tumor xenograft)
Protocol: (§1) Male BALB/c nude mice (4-week old) used in human tumor transplantation studies were purchased from Central Animal Laboratory Inc. (Korea) or Orient Bio Inc. (Korea). The animals were permitted ad libitum access to sterile feed and water in a sterile breeding system at 23+0.5° C.
(§2) For use in tumor transplantation studies, the human cancer cell lines HCT116 (human colorectal carcinoma, CCL-247), PC-3 (human prostate adenocarcinoma, CRL-1435), and A549 (human lung carcinoma, CCL-185) were purchased from ATCC (American Type Culture Collection, Rockville, Md., USA).
(§3) HCT116 cells were cultured in an air incubator under conditions of 37° C. and 5% CO2 using McCoy'SA medium (Gibco BRL) containing 10% heat-inactivated fetal bovine serum (Gibco BRL) and 1% antibiotics-antymycotics (Gibco BRL). Cell lines other than the HCT116 cell line were cultured in an air incubator under conditions of 37° C. and 5% CO2 using RPM1640 medium (Gibco BRL) containing 10% heat-inactivated fetal bovine serum (Gibco BRL) and 1% antibiotics-antymycotics (Gibco BRL).
(§4) Studies on the in vivo transplantation of human cancer cells were carried out in the following manner. Human cancer cells (HCT116, PC-3, and A549) that proliferated in vitro were injected subcutaneously into the abdominal region of BALB/c nude mice and allowed to proliferate in vivo. 20-25 days after the injection, the mice were sacrificed by cervical dislocation, and the solid cancer that proliferated in each of the mice was isolated aseptically, and connective or necrotic tissue and skin was removed therefrom, thus collecting a fresh cancer tissue. 50 mg of a fragment was taken aseptically from the cancer tissue and inserted into a 16-gauge trocar which was then transplanted subcutaneously into the upper abdominal region of mice.
(§5) 15-30 days after the human cancer cell lines have been transplanted into the BALB/c nude mice, only mice in which the cancer cells have proliferated to a given size were selected and used in the experiment. When the tumor size in each of the test groups reached 100-200 mm^3 after cancer cell transplantation, the experiment was started.
(§6) The anticancer effect of each drug was evaluated based on the inhibition rate (IR %) of tumor volume that indicates the tumor volume at reference date in comparison with control groups. […] Tumor size=(short diameter)×(long diameter)/2 I.R.(%)=[1−(mean tumor size of drug-administered group)/(mean tumor size of control group)]×100

[2] = tested on: A549 (human lung carcinoma); assay: In vivo anticancer activity, A549 tumor transplantation model; set-up: species or system BALB/c nude mice (human tumor xenograft); settings: for IR (%): Table 20
Protocol: as §1, §2, §3, §4, §5, §6

[3] = tested on: PC-3 (human prostate adenocarcinoma); assay: In vivo anticancer activity, PC-3 tumor transplantation model; set-up: species or system BALB/c nude mice (human tumor xenograft); settings: for IR (%): Table 21
Protocol: as §1, §2, §3, §4, §5, §6

P450 (CYP3A4) = P450 (CYP3A4) (Homo sapiens, UniProt P08684); assay: P450 (CYP3A4) inhibitory activity (BFC fluorescent substrate); type: in vitro ADME; settings: FIG. 6; in words
Sequence of P450 (CYP3A4) (P08684 whole entry, species assumed): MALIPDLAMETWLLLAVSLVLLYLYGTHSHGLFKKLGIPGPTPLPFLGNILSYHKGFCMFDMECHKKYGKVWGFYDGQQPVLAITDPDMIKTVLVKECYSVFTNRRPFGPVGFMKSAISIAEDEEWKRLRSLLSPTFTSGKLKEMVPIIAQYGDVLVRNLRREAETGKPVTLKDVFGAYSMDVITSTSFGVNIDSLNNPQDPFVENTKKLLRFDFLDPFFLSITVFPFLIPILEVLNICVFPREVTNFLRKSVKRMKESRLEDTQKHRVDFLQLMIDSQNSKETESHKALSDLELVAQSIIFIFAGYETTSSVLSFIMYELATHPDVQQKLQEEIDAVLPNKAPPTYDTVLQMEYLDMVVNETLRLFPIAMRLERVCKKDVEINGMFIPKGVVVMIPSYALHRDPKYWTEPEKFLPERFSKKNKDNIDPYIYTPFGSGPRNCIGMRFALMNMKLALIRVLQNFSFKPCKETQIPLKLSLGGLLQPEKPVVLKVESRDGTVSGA
Protocol: P450 (CYP3A4) is a metabolic enzyme, and non-inhibition of the enzyme by a test compound means that the test substance has a low possibility of causing side effects by interaction with other drugs. Each of compounds used in the test was dissolved in DMSO (10 mg/ml), and the dilution of each test substance to 2×10^−2 mg/ml was additionally performed in 200 μl (micro-liter) of a test system containing an assay buffer. The final solvent concentration was not higher than 2%. The CYP3A4 protein inhibitory test system included a total assay volume (100 μl (micro-liter)) of a NADPH production system (3.3 mM glucose-6-phosphate, 0.4 units/ml glucose-6-phosphate dehydrogenase, 1.3 mM NADP+ and 3.3 mM MgCl2.6H2O in assay buffer) and a test compound in each well of a 96-well plate. After pre-incubation at 37° C. for 10 minutes, 100 μl (micro-liter) of a KPO4 assay buffer containing […] P450 protein and 50 uM BFC (7-benzyloxy-trifluoromethylcoumarin) fluorescent probe substrate was added to the test system, and an enzyme reaction in the test system having a total assay volume of 200 μl (micro-liter) was initiated. […] Irradiation with fluorescence was carried out at an excitation wavelength of 409 nm and an emission wavelength of 530 nm.

in vivo = settings: BALB/c nude, mouse, ip
HDAC enzymes = assay: Effects against HDAC enzymes (BIOMOL kit, Hela nuclear extract); type: biochemical; settings: 37° C. 1 hour
Protocol: To measure effects against HDAC enzymes, a kit (BIOMOL International, LP) was used Each of test substances was dissolved in DMSO to a concentration of 10 mg/ml, and an assay buffer, an enzyme solution, a substrate and a staining reagent were prepared. […] Also, the staining reagent was a mixture of assay buffer (19/20), developer (1/20) and TSA (1/100). The assay buffer, the enzyme solution, the test substance and the substrate were added sequentially to a 96-well plate, stirred on a rocker for 3 minutes, and then incubated at 37° C. for 1 hour. After completion of the incubation, the staining reagent was added, and the mixture was stirred on a rocker for 1 minute and then incubated at 37° C. for 20 minutes (the staining reagent was mixed before addition).

[4] = Maximum tolerated dose in the HCT116 xenograft experiments; settings: BALB/c nude, mouse, in vivo, ip
[5] = BALB/c nude, mouse, in vivo, ip, 2 weeks
[6] = Table 18, 80 mg/kg/day, qd x 5, 2 wks, ip
[7] = 60 mg/kg, b.i.wk(Mon, Thu), 3 wks, ip
[8] = 80 mg/kg, b.i.wk(Mon, Thu), 3 wks, ip
[9] = 100 mg/kg, b.i.wk(Mon, Thu), 3 wks, ip
[10] = Table 19, 40 mg/kg/day, qd x 5, 2 wks, ip
[11] = Table 19, 60 mg/kg/day, qd x 5, 2 wks, ip

Structure (SMILES): Cc1cc2cc(-c3ccc(N(CCCCCCC(=O)NO)C(=O)N4CCN(C)CC4)cc3)ccc2[nH]1 [Compound 334, N-(7-(hydroxyamino)-7-oxoheptyl)-4-methyl-N-(4-(2-methyl-1H-indol-5-yl)phenyl)piperazine-1-carboxamide]
IC50 (HL60 cell line): 10 to 20 nM | IR (%) [1, 10]: 47% | IR (%) [1, 11]: 66% | MTD at 2 weeks (in vivo): 60 mg/kg

Structure (SMILES): CCN1CCN(C(=O)N(CCCCCCC(=O)NO)c2ccc(-c3ccc4cnn(C)c4c3)cc2)CC1 [Compound 336, 4-ethyl-N-(7-(hydroxyamino)-7-oxoheptyl)-N-(4-(1-methyl-1H-indazol-6-yl)phenyl)piperazine-1-carboxamide]
IC50 (HL60 cell line): 50 to 100 nM | IR (%) [1, 10]: 56% | IR (%) [1, 11]: 75% | IR (%) ([1]; Table 19, 80 mg/kg/day, qd x 5, 2 wks, ip): 78% | colon cancer (HCT 116) inhibitory effect compared to control drugs ([1]; ip, qd x 5, 2 wks, in words): excellent inhibitory effects on colon cancer | MTD at 2 weeks (in vivo): 80 mg/kg

Structure (SMILES): Cc1[nH]c2ccccc2c1CCNCc1ccc(/C=C/C(=O)NO)cc1 [LBH 589, Panobinostat, reference compound]
IC50 (HL60 cell line): 20 to 50 nM | IR (%) ([1]; Table 18, 5 mg/kg/day, qd x 5, 2 wks, ip): 40% | IR (%) ([1]; Table 18, 10 mg/kg/day, qd x 5, 2 wks, ip): 65% | IR (%) ([1]; Table 19, 5 mg/kg/day, qd x 5, 2 wks, ip): 40% | IR (%) ([1]; Table 19, 10 mg/kg/day, qd x 5, 2 wks, ip): 65% | IR (%) ([1]; Table 22, 50 mg/kg/day, qd x 5, 3 wks, p.o): 0% | IR (%) ([2]; 10 mg/kg/day, qd x 5, 3 wks): 58% | IR (%) ([3]; 10 mg/kg/day, qd x 5, 3 wks): 48% | MTD at 2 weeks (in vivo): 10 mg/kg

Structure (SMILES): Nc1ccccc1NC(=O)c1ccc(CNc2nccc(-c3cccnc3)n2)cc1 [MGCD 0103, reference compound]
IR (%) ([1]; Table 22, 120 mg/kg/day, qd x 5, 3 wks, p.o): 50%

Structure (SMILES): O=C(/C=C/c1cccc(S(=O)(=O)Nc2ccccc2)c1)NO [PXD 101, Belinostat, reference compound]
IC50 (HL60 cell line): 100 to 200 nM | IC50 (HDAC enzymes): 100 to 200 nM | IR (%) [1, 6]: 38% | MTD at 2 weeks [4]: 80 mg/kg

Structure (SMILES): O=C(CCCCCCC(=O)Nc1ccccc1)NO [SAHA, vorinostat, reference compound]
IR (%) ([1]; Table 18, 100 mg/kg/day, qd x 5, 2 wks, ip): 46% | IR (%) ([1]; Table 22, 200 mg/kg/day, qd x 5, 3 wks, p.o): 26% | maximum tolerated doses (MTDs) [5]: 100 mg/kg

Continued, in another order:

IC50 (HL60 cell line): 50 to 100 nM | P450 3A4 inhibition (P450 (CYP3A4)): did not inhibit | P450 3A4 inhibitory activity relative to LBH 589 (P450 (CYP3A4)): lower than that of LBH 589
Structure (SMILES): CN1CCN(C(=O)N(CCCCCCC(=O)NO)c2ccc(-c3ccc4cnn(C)c4c3)cc2)CC1 [Compound 312, N-(7-(hydroxyamino)-7-oxoheptyl)-4-methyl-N-(4-(1-methyl-1H-indazol-6-yl)phenyl)piperazine-1-carboxamide]
IR (%) ([1]; Table 18, 20 mg/kg/day, qd x 5, 2 wks, ip): 51% | IR (%) ([1]; Table 18, 40 mg/kg/day, qd x 5, 2 wks, ip): 58% | IR (%) ([1]; Table 18, 60 mg/kg/day, qd x 5, 2 wks, ip): 70% | IR (%) [1, 6]: 81% | IR (%) ([1]; Table 22, 150 mg/kg, b.i.wk(Mon, Thu), 3 wks, p.o): 52% | IR (%) ([1]; Table 22, 180 mg/kg, b.i.wk(Mon, Thu), 3 wks, p.o): 55% | IR (%) ([1]; Table 22, 210 mg/kg, b.i.wk(Mon, Thu), 3 wks, p.o): 69% | colon cancer (HCT 116) inhibitory effect compared to control drugs ([1]; ip, qd x 5, 2 wks, in words): excellent colon cancer inhibitory effects | inhibitory effect against colon cancer (HCT116) upon oral administration compared to LBH 589, SAHA and MGCD0103 ([1]; oral, twice a week for 3 weeks, in words): excellent inhibitory effect | IR (%) [2, 7]: 50% | IR (%) [2, 8]: 56% | IR (%) [2, 9]: 71% | inhibitory effect against non-small cell lung cancer (A549) ([2]; administered twice a week, in words): excellent inhibitory effect | IR (%) [3, 7]: 39% | IR (%) [3, 8]: 39% | IR (%) [3, 9]: 59% | inhibitory effects against prostate cancer (PC-3) compared to LBH 589 ([3]; twice a week for 3 weeks, in words): excellent inhibitory effects

IC50 (HL60 cell line): 20 to 50 nM
Structure (SMILES): CN1CCN(C(=O)N(CCCCCCC(=O)NO)c2ccc(-c3ccc4c(cnn4C)c3)cc2)CC1 [Compound 350, N-(7-(hydroxyamino)-7-oxoheptyl)-4-methyl-N-(4-(1-methyl-1H-indazol-5-yl)phenyl)piperazine-1-carboxamide]

IC50 (HL60 cell line): 20 to 50 nM
Structure (SMILES): CCN1CCN(C(=O)N(CCCCCCC(=O)NO)c2ccc(-c3ccc4c(cnn4C)c3)cc2)CC1 [Compound 351, 4-ethyl-N-(7-(hydroxyamino)-7-oxoheptyl)-N-(4-(1-methyl-1H-indazol-5-yl)phenyl)piperazine-1-carboxamide]

IC50 (HL60 cell line): 50 to 100 nM
Structure (SMILES): CN1CCN(C(=S)N(CCCCCCC(=O)NO)c2ccc(-c3ccc4cc[nH]c4c3)cc2)CC1 [Compound 357, 7-(N-(4-(1H-indol-6-yl)phenyl)-4-methylpiperazine-1-carbothioamido)-N-hydroxyheptanamide]

IC50 (HL60 cell line): 20 to 50 nM
Structure (SMILES): CN1CCN(C(=S)N(CCCCCCC(=O)NO)c2ccc(-c3ccc4[nH]ccc4c3)cc2)CC1 [Compound 358, 7-(N-(4-(1H-indol-5-yl)phenyl)-4-methylpiperazine-1-carbothioamido)-N-hydroxyheptanamide]

IC50 (HL60 cell line): 20 to 50 nM
Structure (SMILES): CN1CCN(C(=S)N(CCCCCCC(=O)NO)c2ccc(-c3ccc4c(cnn4C)c3)cc2)CC1 [Compound 359, N-hydroxy-7-(4-methyl-N-(4-(1-methyl-1H-indazol-5-yl)phenyl)piperazine-1-thiocarboamido)heptanamide]
